Measurements: patent publication US20240293558A1, “KRAS INHIBITOR CONJUGATES” (Erasca, Inc., priority 2021, published 2024)

Assays:
KRAS G12D = KRAS G12D (Homo sapiens, UniProt P01116, G12D); assay: In-vitro RAS-RAF binding assay (RRB), HTRF/FRET; type: biochemical; set-up: Biotinylated KRAS protein amino acids 1-169 (produced at Erasca); made in house; details: Table 2, average of multiple runs of each compound; read-out: Inhibition of RAS-RAF Binding (in-vitro) KRAS (G12D) IC50
Outline: (§1)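 Compounds preincubated with terbium-labelled biotinylated KRAS (aa 1-169, 30 nM) before 60 min SOS1-catalysed exchange to GTPgS. Binding of the d2-labelled cRAF RBD (30 nM) is read as FRET at equilibrium in duplicate. Buffer: 50 mM HEPES pH 7.5, 100 mM NaCl, 1 mM MgCl2, 1 mM DTT.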

KRAS (WT) = target: T1, KRAS (WT) (Homo sapiens, UniProt P01116); assay: In-vitro RAS-RAF binding assay (RRB), HTRF/FRET; type: biochemical; details: Table 2, average of multiple runs of each compound; read-out: Inhibition of RAS-RAF Binding (in-vitro) KRAS (WT) IC50
T1 construct: Biotinylated KRAS protein amino acids 1-169 (produced at Erasca); made in house
T1 sequence (P01116 1-169 isoform P01116-2): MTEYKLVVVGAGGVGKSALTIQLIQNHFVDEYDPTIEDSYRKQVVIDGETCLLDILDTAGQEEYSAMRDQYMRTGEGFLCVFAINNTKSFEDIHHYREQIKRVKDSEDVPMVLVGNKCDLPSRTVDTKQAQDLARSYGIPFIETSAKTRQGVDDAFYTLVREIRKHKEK
Outline: as §1

Sequence of KRAS G12D (P01116 1-169 isoform P01116-2 G12D): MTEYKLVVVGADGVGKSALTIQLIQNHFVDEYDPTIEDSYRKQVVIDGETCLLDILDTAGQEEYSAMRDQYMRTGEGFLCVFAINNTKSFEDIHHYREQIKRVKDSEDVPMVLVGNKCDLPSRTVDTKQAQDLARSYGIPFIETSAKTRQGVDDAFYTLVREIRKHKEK

## C#Cc1c(F)ccc2cc(O)cc(-c3ncc4c(N5CC6CCC(C5)N6)nc(OCCN5CCC(C)(COc6cc([C@H](C(=O)N7C[C@H](O)C[C@H]7C(=O)N[C@@H](C)c7ccc(-c8c(F)cccc8F)cc7)C(C)C)on6)CC5)nc4c3F)c12 [Example 61, (2S,4R)-1-((2R)-2-(3-((1-(2-((4-(3,8-diazabicyclo[3.2.1]octan-3-yl)-7-(8-ethynyl-7-fluoro-3-hydroxynaphthalen-1-yl)-8-fluoropyrido[4,3-d]pyrimidin-2-yl)oxy)ethyl)-4-methylpiperidin-4-yl)methoxy)isoxazol-5-yl)-3-methylbutanoyl)-N-((S)-1-(2′,6′-difluoro-[1,1′-biphenyl]-4-yl)ethyl)-4-hydroxypyrrolidine-2-carboxamide]
KRAS G12D
  IC50: 8.99 nM
KRAS (WT)
  IC50: 1200 nM

## C#Cc1c(F)ccc2cc(O)cc(-c3ncc4c(N5CC6CCC(C5)N6)nc(OCCN5CCC(F)(COc6cc([C@H](C(=O)N7C[C@H](O)C[C@H]7C(=O)N[C@@H](C)c7ccc(-c8c(F)cccc8F)cc7)C(C)C)on6)CC5)nc4c3F)c12 [Example 62, (2S,4R)-1-((2R)-2-(3-((1-(2-((4-(3,8-diazabicyclo[3.2.1]octan-3-yl)-7-(8-ethynyl-7-fluoro-3-hydroxynaphthalen-1-yl)-8-fluoropyrido[4,3-d]pyrimidin-2-yl)oxy)ethyl)-4-fluoropiperidin-4-yl)methoxy)isoxazol-5-yl)-3-methylbutanoyl)-N-((S)-1-(2′,6′-difluoro-[1,1′-biphenyl]-4-yl)ethyl)-4-hydroxypyrrolidine-2-carboxamide]
KRAS G12D
  IC50: 13.4 nM
KRAS (WT)
  IC50: > 10000 nM

## C#Cc1c(F)ccc2cc(O)cc(-c3ncc4c(N5CC6CCC(C5)N6)nc(OCCN5CCC(COc6cc([C@H](C(=O)N7C[C@H](O)C[C@H]7C(=O)N[C@@H](C)c7ccc(-c8c(F)cc(F)cc8F)cc7)C(C)C)on6)CC5)nc4c3F)c12 [Example 63, (2S,4R)-1-((2R)-2-(3-((1-(2-((4-(3,8-diazabicyclo[3.2.1]octan-3-yl)-7-(8-ethynyl-7-fluoro-3-hydroxynaphthalen-1-yl)-8-fluoropyrido[4,3-d]pyrimidin-2-yl)oxy)ethyl)piperidin-4-yl)methoxy)isoxazol-5-yl)-3-methylbutanoyl)-4-hydroxy-N-((S)-1-(2′,4′,6′-trifluoro-[1,1′-biphenyl]-4-yl)ethyl)pyrrolidine-2-carboxamide]
KRAS G12D
  IC50: 10.6 nM
KRAS (WT)
  IC50: 8330 nM

## C#Cc1c(F)ccc2cc(O)cc(-c3ncc4c(N5CC6CCC(C5)N6)nc(OCCN5CCC(C)(COc6cc([C@H](C(=O)N7C[C@H](O)C[C@H]7C(=O)N[C@@H](C)c7ccc(-c8c(F)cc(F)cc8F)cc7)C(C)C)on6)CC5)nc4c3F)c12 [Example 64, (2S,4R)-1-((2R)-2-(3-((1-(2-((4-(3,8-diazabicyclo[3.2.1]octan-3-yl)-7-(8-ethynyl-7-fluoro-3-hydroxynaphthalen-1-yl)-8-fluoropyrido[4,3-d]pyrimidin-2-yl)oxy)ethyl)-4-methylpiperidin-4-yl)methoxy)isoxazol-5-yl)-3-methylbutanoyl)-4-hydroxy-N-((S)-1-(2′,4′,6′-trifluoro-[1,1′-biphenyl]-4-yl)ethyl)pyrrolidine-2-carboxamide]
KRAS G12D
  IC50: 9.62 nM
KRAS (WT)
  IC50: 1410 nM

## C#Cc1c(F)ccc2cc(O)cc(-c3ncc4c(N5CC6CCC(C5)N6)nc(OCCN5CCC(F)(COc6cc([C@H](C(=O)N7C[C@H](O)C[C@H]7C(=O)N[C@@H](C)c7ccc(-c8c(F)cc(F)cc8F)cc7)C(C)C)on6)CC5)nc4c3F)c12 [Example 65, (2S,4R)-1-((2R)-2-(3-((1-(2-((4-(3,8-diazabicyclo[3.2.1]octan-3-yl)-7-(8-ethynyl-7-fluoro-3-hydroxynaphthalen-1-yl)-8-fluoropyrido[4,3-d]pyrimidin-2-yl)oxy)ethyl)-4-fluoropiperidin-4-yl)methoxy)isoxazol-5-yl)-3-methylbutanoyl)-4-hydroxy-N-((S)-1-(2′,4′,6′-trifluoro-[1,1′-biphenyl]-4-yl)ethyl)pyrrolidine-2-carboxamide]
KRAS G12D
  IC50: 11.1 nM
KRAS (WT)
  IC50: > 10000 nM

## CC(C)[C@@H](C(=O)N1C[C@H](O)C[C@H]1C(=O)N[C@@H](C)c1ccc(-c2c(F)cccc2F)cc1)c1cc(OCC2(C)CCN(CCOc3nc(N4CC5CCC(C4)N5)c4cc(Cl)c(-c5ccc(F)c6sc(N)c(C#N)c56)c(F)c4n3)CC2)no1 [Example 66, (2S,4R)-1-((2R)-2-(3-((1-(2-((7-(2-amino-3-cyano-7-fluorobenzo[b]thiophen-4-yl)-4-(3,8-diazabicyclo[3.2.1]octan-3-yl)-6-chloro-8-fluoroquinazolin-2-yl)oxy)ethyl)-4-methylpiperidin-4-yl)methoxy)isoxazol-5-yl)-3-methylbutanoyl)-N-((S)-1-(2′,6′-difluoro-[1,1′-biphenyl]-4-yl)ethyl)-4-hydroxypyrrolidine-2-carboxamide]
KRAS G12D
  IC50: 19.8 nM
KRAS (WT)
  IC50: ≥ 10000 nM

## C[C@H](NC(=O)[C@@H]1C[C@@H](O)CN1C(=O)[C@@H](NC(=O)CCOCCCN1CCC[C@H]1COc1nc(N2CC3CCC(C2)N3)c2cc(C(F)(F)F)c(-c3ccc(F)c4sc(N)c(C#N)c34)c(F)c2n1)C(C)(C)C)c1ccc(-c2c(F)cccc2F)cc1 [Example 79, (2S,4R)-1-((2S)-2-(3-(3-((2S)-2-((((7R)-7-(2-amino-3-cyano-7-fluorobenzo[b]thiophen-4-yl)-4-(3,8-diazabicyclo[3.2.1]octan-3-yl)-8-fluoro-6-(trifluoromethyl)quinazolin-2-yl)oxy)methyl)pyrrolidin-1-yl)propoxy)propanamido)-3,3-dimethylbutanoyl)-N-((S)-1-(2′,6′-difluoro-[1,1′-biphenyl]-4-yl)ethyl)-4-hydroxypyrrolidine-2-carboxamide]
KRAS G12D
  IC50: > 10000 nM
KRAS (WT)
  IC50: > 10000 nM

## Cc1ncsc1-c1ccc([C@H](C)NC(=O)[C@@H]2C[C@@H](O)CN2C(=O)[C@@H](NC(=O)CCOCCCN2CCC[C@H]2COc2nc(N3CC4CCC(C3)N4)c3cc(C(F)(F)F)c(-c4ccc(F)c5sc(N)c(C#N)c45)cc3n2)C(C)(C)C)cc1 [Example 80, (2S,4R)-1-((2S)-2-(3-(3-((2S)-2-(((7-(2-amino-3-cyano-7-fluorobenzo[b]thiophen-4-yl)-4-(3,8-diazabicyclo[3.2.1]octan-3-yl)-6-(trifluoromethyl)quinazolin-2-yl)oxy)methyl)pyrrolidin-1-yl)propoxy)propanamido)-3,3-dimethylbutanoyl)-4-hydroxy-N-((S)-1-(4-(4-methylthiazol-5-yl)phenyl)ethyl)pyrrolidine-2-carboxamide]
KRAS G12D
  IC50: 13.9 nM
KRAS (WT)
  IC50: 63.7 nM

## Cc1ncsc1-c1ccc([C@H](C)NC(=O)[C@@H]2C[C@@H](O)CN2C(=O)[C@@H](NC(=O)CCCCN2CCC[C@H]2COc2nc(N3CC4CCC(C3)N4)c3cnc(-c4cc(O)cc5cccc(F)c45)c(F)c3n2)C(C)(C)C)cc1 [Example 82, (2S,4R)-1-((2S)-2-(5-((2S)-2-(((4-(3,8-diazabicyclo[3.2.1]octan-3-yl)-8-fluoro-7-(8-fluoro-3-hydroxynaphthalen-1-yl)pyrido[4,3-d]pyrimidin-2-yl)oxy)methyl)pyrrolidin-1-yl)pentanamido)-3,3-dimethylbutanoyl)-4-hydroxy-N-((S)-1-(4-(4-methylthiazol-5-yl)phenyl)ethyl)pyrrolidine-2-carboxamide]
KRAS G12D
  IC50: 8.52 nM
KRAS (WT)
  IC50: 304 nM
